In ChEMBL document CHEMBL1126851, “Conformationally restrained analogs of sympathomimetic catecholamines. Synthesis, conformational analysis, and adrenergic activity of isochroman derivatives” (J Med Chem, 1993):

How the values were obtained:
[1] = target: T1, Adrenergic receptor alpha-2 (UniProt P08913+P18825+P18089); details: Cavia porcellus; Ileum
Description: Tested for alpha adrenergic activity against alpha-2 receptor from isolated guinea pig ileum

[2] = target: Beta-2 adrenergic receptor (Cavia porcellus) (UniProt Q8K4Z4)
[3] = target: Beta-1 adrenergic receptor (Cavia porcellus, UniProt B0FL73)
Beta-1 adrenergic receptor (Cavia porcellus, UniProt B0FL73), sequence (B0FL73 whole entry): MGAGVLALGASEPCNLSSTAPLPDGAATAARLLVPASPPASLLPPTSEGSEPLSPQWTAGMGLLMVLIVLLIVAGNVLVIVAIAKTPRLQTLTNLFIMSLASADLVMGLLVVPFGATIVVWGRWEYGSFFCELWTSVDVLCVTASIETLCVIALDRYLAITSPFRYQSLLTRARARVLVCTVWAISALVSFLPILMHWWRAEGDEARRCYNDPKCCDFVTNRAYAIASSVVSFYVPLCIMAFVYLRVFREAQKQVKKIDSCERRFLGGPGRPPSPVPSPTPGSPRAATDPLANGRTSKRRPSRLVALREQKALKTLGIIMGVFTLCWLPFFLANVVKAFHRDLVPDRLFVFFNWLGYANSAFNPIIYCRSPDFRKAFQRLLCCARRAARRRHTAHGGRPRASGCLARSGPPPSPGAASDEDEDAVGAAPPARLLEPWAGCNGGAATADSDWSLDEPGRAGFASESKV
Description: (§1) Inhibitory activity against beta-1 adrenergic receptor in guinea pig atria is determined

[4] = target: Beta-2 adrenergic receptor (Bos taurus, UniProt Q28044); test: Tested for binding affinity against beta-2 adrenergic receptor in bovine lung using [3H]DHA as radioligand
Beta-2 adrenergic receptor (Bos taurus, UniProt Q28044), sequence (Q28044 whole entry): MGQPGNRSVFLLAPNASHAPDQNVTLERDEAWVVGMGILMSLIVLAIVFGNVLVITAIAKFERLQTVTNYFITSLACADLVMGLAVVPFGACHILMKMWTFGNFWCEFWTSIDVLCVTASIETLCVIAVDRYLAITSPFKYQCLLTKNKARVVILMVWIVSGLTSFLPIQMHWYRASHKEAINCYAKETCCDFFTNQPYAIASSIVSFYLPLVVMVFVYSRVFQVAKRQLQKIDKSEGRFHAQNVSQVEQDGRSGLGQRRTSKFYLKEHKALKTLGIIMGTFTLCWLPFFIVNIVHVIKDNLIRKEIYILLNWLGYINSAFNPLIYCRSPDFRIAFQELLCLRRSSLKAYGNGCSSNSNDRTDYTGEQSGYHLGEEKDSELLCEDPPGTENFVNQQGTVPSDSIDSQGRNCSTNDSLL

[5] = target: T2, Adrenergic receptor alpha-1 (Rattus norvegicus, UniProt P15823+P23944+P43140)
T2 sequence (P15823 whole entry): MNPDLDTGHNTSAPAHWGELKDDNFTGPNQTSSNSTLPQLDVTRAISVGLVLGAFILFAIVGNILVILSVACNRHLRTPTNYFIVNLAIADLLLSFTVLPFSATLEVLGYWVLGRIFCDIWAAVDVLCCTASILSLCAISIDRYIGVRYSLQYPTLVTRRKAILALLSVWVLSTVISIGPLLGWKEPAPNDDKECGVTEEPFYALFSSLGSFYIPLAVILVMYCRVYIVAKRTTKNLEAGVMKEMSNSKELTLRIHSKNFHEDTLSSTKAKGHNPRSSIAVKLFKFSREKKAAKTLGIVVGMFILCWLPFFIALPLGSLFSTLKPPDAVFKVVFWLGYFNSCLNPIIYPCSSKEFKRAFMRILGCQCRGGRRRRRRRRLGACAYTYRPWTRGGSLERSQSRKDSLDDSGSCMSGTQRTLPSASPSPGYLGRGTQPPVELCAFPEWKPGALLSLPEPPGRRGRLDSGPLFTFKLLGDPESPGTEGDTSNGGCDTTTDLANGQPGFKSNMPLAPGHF
T2 sequence (P23944 whole entry): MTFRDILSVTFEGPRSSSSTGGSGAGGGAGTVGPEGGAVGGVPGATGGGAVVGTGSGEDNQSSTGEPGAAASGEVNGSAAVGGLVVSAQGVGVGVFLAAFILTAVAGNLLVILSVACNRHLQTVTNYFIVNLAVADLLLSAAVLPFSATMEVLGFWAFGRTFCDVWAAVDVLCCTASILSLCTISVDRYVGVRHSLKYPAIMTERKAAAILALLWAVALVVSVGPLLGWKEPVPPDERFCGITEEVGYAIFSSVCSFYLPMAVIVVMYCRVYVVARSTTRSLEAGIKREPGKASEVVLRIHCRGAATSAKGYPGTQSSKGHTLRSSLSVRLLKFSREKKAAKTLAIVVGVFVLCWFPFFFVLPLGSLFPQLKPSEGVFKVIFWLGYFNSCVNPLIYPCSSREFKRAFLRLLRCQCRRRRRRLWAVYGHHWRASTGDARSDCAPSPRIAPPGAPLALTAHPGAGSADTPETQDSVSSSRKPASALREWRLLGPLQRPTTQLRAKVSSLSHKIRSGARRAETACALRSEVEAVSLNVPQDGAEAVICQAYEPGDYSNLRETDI
T2 sequence (P43140 whole entry): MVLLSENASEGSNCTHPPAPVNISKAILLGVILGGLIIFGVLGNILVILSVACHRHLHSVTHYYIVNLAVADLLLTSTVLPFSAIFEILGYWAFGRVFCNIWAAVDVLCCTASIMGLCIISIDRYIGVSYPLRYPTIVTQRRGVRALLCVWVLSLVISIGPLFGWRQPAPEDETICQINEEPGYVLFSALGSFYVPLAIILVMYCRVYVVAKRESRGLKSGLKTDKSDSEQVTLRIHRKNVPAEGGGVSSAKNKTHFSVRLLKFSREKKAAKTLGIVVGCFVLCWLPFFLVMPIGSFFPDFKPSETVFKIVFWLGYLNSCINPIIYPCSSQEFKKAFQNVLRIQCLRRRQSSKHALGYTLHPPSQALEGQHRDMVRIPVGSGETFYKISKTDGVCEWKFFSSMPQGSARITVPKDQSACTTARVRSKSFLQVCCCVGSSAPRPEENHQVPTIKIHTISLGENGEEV

[6] = target: T1, Adrenergic receptor alpha-2; details: Cavia porcellus; Ileum; remark: listed apart in the source
Description: Intrinsic activity against alpha-2 receptor in isolated guinea pig ileum

[7] = target: Beta-1 adrenergic receptor (Rattus norvegicus, UniProt P18090); test: biochemical
Beta-1 adrenergic receptor (Rattus norvegicus, UniProt P18090), sequence (P18090 whole entry): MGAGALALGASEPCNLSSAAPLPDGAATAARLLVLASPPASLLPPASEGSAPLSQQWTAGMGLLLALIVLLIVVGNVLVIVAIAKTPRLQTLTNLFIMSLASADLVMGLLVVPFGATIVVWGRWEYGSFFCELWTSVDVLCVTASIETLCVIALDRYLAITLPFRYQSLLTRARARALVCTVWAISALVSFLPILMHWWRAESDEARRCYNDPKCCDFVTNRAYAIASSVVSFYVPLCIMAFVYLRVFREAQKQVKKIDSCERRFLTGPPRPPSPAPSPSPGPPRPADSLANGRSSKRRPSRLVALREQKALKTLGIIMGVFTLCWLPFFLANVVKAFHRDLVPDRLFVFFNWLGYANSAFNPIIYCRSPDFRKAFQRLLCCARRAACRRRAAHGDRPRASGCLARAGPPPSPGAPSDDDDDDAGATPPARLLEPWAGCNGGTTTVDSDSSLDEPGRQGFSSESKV
Description: Tested for binding affinity against beta-1 adrenergic receptor in rat brain using [3H]-CGP- 26505 as radioligand

[8] = target: T2, Adrenergic receptor alpha-1; test: -log IC50 value against alpha-1 receptor in rat vas deferens; type: tissue-based
[9] = target: T3, Adrenergic receptor alpha-2 (Rattus norvegicus, UniProt P22086+P19328+P22909)
T3 sequence (P22086 whole entry): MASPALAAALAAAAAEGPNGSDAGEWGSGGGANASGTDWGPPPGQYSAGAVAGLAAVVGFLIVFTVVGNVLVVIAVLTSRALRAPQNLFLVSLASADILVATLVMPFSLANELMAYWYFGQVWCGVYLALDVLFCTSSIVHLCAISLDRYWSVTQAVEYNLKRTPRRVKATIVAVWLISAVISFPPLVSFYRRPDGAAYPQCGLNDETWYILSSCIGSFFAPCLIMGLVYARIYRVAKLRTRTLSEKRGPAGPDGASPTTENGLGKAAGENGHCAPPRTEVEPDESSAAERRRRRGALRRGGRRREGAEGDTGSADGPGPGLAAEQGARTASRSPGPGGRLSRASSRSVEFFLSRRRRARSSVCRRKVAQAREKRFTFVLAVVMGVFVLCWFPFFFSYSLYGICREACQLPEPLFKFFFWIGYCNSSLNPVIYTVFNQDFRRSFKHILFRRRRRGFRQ
T3 sequence (P19328 whole entry): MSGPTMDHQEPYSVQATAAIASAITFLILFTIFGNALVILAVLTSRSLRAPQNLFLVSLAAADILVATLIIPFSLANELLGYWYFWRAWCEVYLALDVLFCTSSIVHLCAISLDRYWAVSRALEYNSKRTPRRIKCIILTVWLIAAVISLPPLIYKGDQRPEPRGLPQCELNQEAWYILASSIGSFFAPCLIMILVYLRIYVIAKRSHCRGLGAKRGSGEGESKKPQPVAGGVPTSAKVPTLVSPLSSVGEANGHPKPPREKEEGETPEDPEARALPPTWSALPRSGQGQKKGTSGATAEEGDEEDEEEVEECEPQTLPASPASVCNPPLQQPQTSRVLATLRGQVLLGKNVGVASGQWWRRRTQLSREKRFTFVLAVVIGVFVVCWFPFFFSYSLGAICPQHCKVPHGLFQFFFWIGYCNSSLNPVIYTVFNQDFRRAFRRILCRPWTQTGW
T3 sequence (P22909 whole entry): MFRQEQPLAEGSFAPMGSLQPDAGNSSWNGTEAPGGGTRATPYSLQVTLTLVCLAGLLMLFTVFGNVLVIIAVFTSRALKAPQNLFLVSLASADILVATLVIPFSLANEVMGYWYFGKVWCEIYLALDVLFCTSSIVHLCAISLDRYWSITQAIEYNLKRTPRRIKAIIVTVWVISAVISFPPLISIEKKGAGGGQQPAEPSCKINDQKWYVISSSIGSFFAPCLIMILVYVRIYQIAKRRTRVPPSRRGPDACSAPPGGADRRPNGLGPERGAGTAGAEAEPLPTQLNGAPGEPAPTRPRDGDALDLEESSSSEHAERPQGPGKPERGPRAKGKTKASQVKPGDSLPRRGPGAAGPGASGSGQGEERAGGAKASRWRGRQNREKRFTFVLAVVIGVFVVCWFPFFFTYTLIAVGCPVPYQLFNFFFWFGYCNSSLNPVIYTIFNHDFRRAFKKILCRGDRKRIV

[10] = target: Beta-2 adrenergic receptor (Cavia porcellus, UniProt Q8K4Z4); test: Inhibitory activity against beta-2 adrenergic receptor in guinea pig tracheal strip is determined
Beta-2 adrenergic receptor (Cavia porcellus, UniProt Q8K4Z4), sequence (Q8K4Z4 whole entry): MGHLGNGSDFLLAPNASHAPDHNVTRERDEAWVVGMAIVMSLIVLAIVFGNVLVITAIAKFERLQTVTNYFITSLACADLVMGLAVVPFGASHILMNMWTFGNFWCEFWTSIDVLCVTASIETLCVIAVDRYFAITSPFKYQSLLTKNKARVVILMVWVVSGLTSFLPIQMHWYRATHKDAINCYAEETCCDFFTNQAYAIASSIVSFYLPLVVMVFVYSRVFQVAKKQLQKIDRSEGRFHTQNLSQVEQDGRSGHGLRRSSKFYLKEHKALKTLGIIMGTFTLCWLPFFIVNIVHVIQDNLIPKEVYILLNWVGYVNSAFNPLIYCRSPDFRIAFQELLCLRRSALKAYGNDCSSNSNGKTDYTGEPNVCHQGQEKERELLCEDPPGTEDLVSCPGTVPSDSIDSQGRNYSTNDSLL

[11] = target: T4, Adrenergic receptor alpha-1 (Rattus norvegicus) (UniProt P15823+P23944+P43140); test: Intrinsic activity against alpha-1 receptor in isolated rat vas deferens; type: tissue-based
[12] = target: T4, Adrenergic receptor alpha-1 (Rattus norvegicus); test: Tested for alpha adrenergic activity against alpha-1 receptor from isolated rat vas deferens; type: tissue-based
[13] = target: Beta-2 adrenergic receptor (Cavia porcellus) (UniProt Q8K4Z4); remark: listed apart in the source
[14] = target: Beta-1 adrenergic receptor (Cavia porcellus) (UniProt B0FL73); test: Intrinsic activity against beta-1 receptor in isolated guinea pig atria
Beta-1 adrenergic receptor (Cavia porcellus), sequence (B0FL73 1-467): as the sequence (B0FL73 whole entry) above

[15] = target: Beta-1 adrenergic receptor (Cavia porcellus) (UniProt B0FL73)
Description: as §1

T1 sequence (P08913 whole entry, looked up): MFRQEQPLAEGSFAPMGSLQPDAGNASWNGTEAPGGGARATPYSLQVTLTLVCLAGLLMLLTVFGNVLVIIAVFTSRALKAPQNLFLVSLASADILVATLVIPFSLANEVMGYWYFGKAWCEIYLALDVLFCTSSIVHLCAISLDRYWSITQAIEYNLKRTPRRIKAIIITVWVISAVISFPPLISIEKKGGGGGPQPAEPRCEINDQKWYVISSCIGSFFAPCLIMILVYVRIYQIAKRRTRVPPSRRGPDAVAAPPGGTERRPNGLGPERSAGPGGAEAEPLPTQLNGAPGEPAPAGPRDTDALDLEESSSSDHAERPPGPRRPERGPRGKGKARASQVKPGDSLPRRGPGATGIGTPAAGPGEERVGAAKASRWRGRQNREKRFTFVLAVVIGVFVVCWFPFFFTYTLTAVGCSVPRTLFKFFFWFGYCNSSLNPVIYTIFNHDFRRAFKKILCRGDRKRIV
T1 sequence (P18089 whole entry, looked up): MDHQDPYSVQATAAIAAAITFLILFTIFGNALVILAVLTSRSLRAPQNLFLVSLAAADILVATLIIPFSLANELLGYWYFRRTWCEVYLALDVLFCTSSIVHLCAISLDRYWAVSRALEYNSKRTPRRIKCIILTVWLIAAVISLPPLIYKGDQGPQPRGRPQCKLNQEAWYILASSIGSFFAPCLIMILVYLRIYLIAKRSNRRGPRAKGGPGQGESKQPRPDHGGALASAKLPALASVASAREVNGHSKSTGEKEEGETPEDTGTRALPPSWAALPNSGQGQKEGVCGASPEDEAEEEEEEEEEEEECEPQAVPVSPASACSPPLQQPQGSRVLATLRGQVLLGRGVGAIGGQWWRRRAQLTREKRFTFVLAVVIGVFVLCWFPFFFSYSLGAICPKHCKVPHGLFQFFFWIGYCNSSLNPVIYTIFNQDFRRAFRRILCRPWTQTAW
T1 sequence (P18825 whole entry, looked up): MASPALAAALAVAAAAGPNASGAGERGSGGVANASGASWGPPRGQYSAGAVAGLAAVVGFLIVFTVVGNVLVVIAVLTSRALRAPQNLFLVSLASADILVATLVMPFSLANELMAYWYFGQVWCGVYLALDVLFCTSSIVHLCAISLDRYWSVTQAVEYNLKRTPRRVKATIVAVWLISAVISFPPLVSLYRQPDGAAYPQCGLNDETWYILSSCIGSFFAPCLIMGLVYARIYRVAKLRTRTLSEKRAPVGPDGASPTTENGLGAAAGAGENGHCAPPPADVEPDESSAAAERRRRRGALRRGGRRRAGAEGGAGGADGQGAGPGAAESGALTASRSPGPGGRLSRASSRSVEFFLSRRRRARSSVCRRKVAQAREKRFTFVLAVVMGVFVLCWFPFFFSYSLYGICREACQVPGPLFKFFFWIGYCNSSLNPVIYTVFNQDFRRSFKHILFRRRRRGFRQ
Beta-2 adrenergic receptor (Cavia porcellus), sequence (Q8K4Z4 whole entry, looked up): as the sequence (Q8K4Z4 whole entry) above

pD2 [1]	pD2 [2]	IC50 [3] [µM]	Ki [4] [µM]	Ki [5] [µM]	IA [6]	Ki [7] [µM]	-Log IC50 [8]	Ki [9] [µM]	IC50 [10] [µM]	IA [11]	pD2 [12]	IA [13]	IA [14]	pD2 [15]	SMILES
5.26	< 3.5	> 316	14.9	21.5	1	28.8	< 3.5	1.78							CC(C)NCC1OCCc2c1ccc(O)c2O (stereo unspecified)
4.56		33.9	4.9	26	0.72	1.49		4.12	5.5						CC(C)NCC1OCCc2cc(O)c(O)cc21 (stereo unspecified)
		66.1	49.9	42.2	1	40.3		0.0074	> 316	1.03	4.69				NCC1OCCc2c1ccc(O)c2O (stereo unspecified)
5.45		6.76	28.8	60.3	0.73	3.45		1.28	30.2	0.42	3.97				NCC1OCCc2cc(O)c(O)cc21 (stereo unspecified)

The next lines start with the molecule.

SMILES	pD2 [1]	pD2 [2]	IC50 [3] [µM]	Ki [4] [µM]	Ki [5] [µM]	IA [6]	Ki [7] [µM]	-Log IC50 [8]	Ki [9] [µM]	IC50 [10] [µM]	IA [11]	pD2 [12]	IA [13]	IA [14]	pD2 [15]
CC(C)NCC(O)c1ccc(O)c(O)c1 (stereo unspecified)											0.83		1		
NC[C@H](O)c1ccc(O)c(O)c1	6.56	6.03				1					1	5.12	1	1	6.32
